In data set [1] the test system is human whole blood. As to conditions: human whole blood, 60 min 37 °C; for Calculated hemolysis ratio: peptides 100 μM, neg. PBS, 3 x 2 replicates.
Method: (§1) Blood is drawn from a human or an animal, and next, the washed erythrocytes are incubated together with the compound or material under investigation. If the compound causes hemolysis, hemoglobin (along with other cellular constituents) will be released into the supernatant.
(§2) All blood was collected in Lithium Heparin tubes 4 mL (Greiner Bio-One, Kremsmünster, Austria) or Coagulation sodium citrate 3.2% tubes 3 mL (Greiner Bio-One).
(§3) These three peptides were synthesized by Genscript Inc. (Piscataway, NJ, USA), and stock solutions of 1 mg/mL were made from the purchased powders. […] All peptides were diluted to yield a 100 μM final concentration in the hemolysis assays.
(§4) Triton X-100 (T8787) and Tween-20 (P2287) detergents were purchased from Sigma Aldrich and diluted to obtain 10% stock solutions by weighing (w/v). A sodium Dodecyl Sulfate (SDS) 10% solution was purchased from Invitrogen (Waltham, MA, USA, 15553027). All subsequent dilutions annotated in figures were made from these stocks.
(§5) As soon as possible after phlebotomy, the blood samples were centrifuged at 1700× g for 5 min. The supernatant was removed by aspiration and 2 mL of PBS pH 7 was added. The washing step was repeated three times or until the supernatant was clear. After final aspiration, the remaining pellet was diluted 1:100 in PBS pH 7 to obtain a 1% erythrocyte suspension (or 1:100, 1:50, and 1:20 for assays testing the effect of erythrocyte concentration). For experiments using whole blood, the washing steps were not performed, but downstream experimentation was identical. For experiments performed with 96-well plates, 50 μL of test compound, water, or detergent were mixed with 50 μL of blood sample (1% erythrocyte suspension or whole blood). For experiments using larger volumes, 250 μL of test compound, water, or detergent were mixed with 250 μL blood sample in an Eppendorf tube. Samples were subsequently incubated at 37 °C for 60 min (or 15, 30, 60, 90, or 120 min for assays evaluating the effect of incubation time). After incubation, the plates/tubes were centrifuged at 1700× g for 5 min, and then 50 μL of the supernatants were transferred to transparent, flat-bottom 96-well plates (Anicrin, A013418). Finally, absorption was measured at 405, 530, and 570 nm in a Victor Nivo Multimode microplate reader (Perkin Elmer, Waltham, MA, USA).
Data set [2] relates to washed human erythrocytes. The experiment in a line: Hemolysis assay, washed human erythrocytes. As to conditions: peptides 100 μM, 60 min 37 °C, pos. 10% Triton X-100, neg. PBS, 3 x 2 replicates.
Method: as §1, §2, §3, §4, §5
The conditions of data set [3]: cited from earlier work. As for the experimental part: OD measurements of human whole blood treated with hemolyzing agents or AMPs at 405 nm (A), 530 nm (B), and 570 nm (C) were recorded (Figure 6) and HRs calculated (Table 5). For comparison, we also included the two previously well-characterized AMPs melittin and polymyxin B, which exert high and low cytotoxicity, respectively. […] From 530 and 570 nm measurements, the expected conce ...

Setting [4] is: OD 405 nm (signal saturated), pos. 10% SDS.
[5] abbreviates: OD 570 nm, pos. 10% Triton X-100 (table title; text says 10% SDS).

Read-outs that look alike come from different tables or passages of the source.

As for `CC[C@H](C)[C@H](NC(=O)CN)C(=O)NCC(=O)N[C@@H](C)C(=O)N[C@H](C(=O)N[C@@H](CC(C)C)C(=O)N[C@@H](CCCCN)C(=O)N[C@H](C(=O)N[C@@H](CC(C)C)C(=O)N[C@H](C(=O)N[C@H](C(=O)NCC(=O)N[C@@H](CC(C)C)C(=O)N1CCC[C@H]1C(=O)N[C@@H](C)C(=O)N[C@@H](CC(C)C)C(=O)N[C@H](C(=O)N[C@@H](CO)C(=O)N[C@@H](Cc1c[nH]c2ccccc12)C(=O)N[C@H](C(=O)N[C@@H](CCCCN)C(=O)N[C@@H](CCCNC(=N)N)C(=O)N[C@@H](CCCCN)C(=O)N[C@@H](CCCNC(=N)N)C(=O)N[C@@H](CCC(N)=O)C(=O)N[C@@H](CCC(N)=O)C(N)=O)[C@@H](C)CC)[C@@H](C)CC)[C@@H](C)O)[C@@H](C)O)C(C)C)C(C)C` [Melittin, reference compound], the “Blood clotting in whole blood” value in data set [1] (melittin 100 μM) is given as “clotting effect was also observed”. The Calculated hemolysis ratio was 98.3 ± 1.4% in data set [1] (setting [4]); 36.6 ± 8.7% in data set [1] (OD 530 nm, pos. 10% SDS); 54 ± 15.5% in data set [1] (setting [5]); 78.4 ± 4.3% in data set [2] (1% washed human erythrocytes, OD 530 nm); 79.8 ± 8.2% in data set [2] (1% washed human erythrocytes, OD 570 nm); 84.4 ± 8.1% in data set [2] (Table 6: 1% washed human erythrocytes, OD 405 nm). The “Cytotoxicity (qualitative)” value in data set [3] (previously well-characterized AMPs, ref [9],[33]) is “high”.
Consider Polymyxin B [PMB, reference compound], for which the Calculated hemolysis ratio in data set [1] (setting [4]) is listed as 3.1 ± 1.1%; in data set [1] (OD 530 nm, pos. 10% SDS), 3 ± 2.4%; in data set [1] (setting [5]), 4.5 ± 1.8%. Also, the “Cytotoxicity (qualitative)” value in data set [3] is “low”.

Source of the values: article PMC9917735, “Optimization of the Hemolysis Assay for the Assessment of Cytotoxicity” (International Journal of Molecular Sciences, 2023).
